Assay [1] relates to MV4-11 (FLT3-ITD) cell line. Nature of the assay: In vitro cell activity assay (MTT cell viability, 72 hours). It counts as cell-based. Particulars: Homo sapiens, 72 hours at 37° C., 10,000 cells per well, read-out: IC50 against MV4-11. In outline:
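Compound serial dilutions applied to MV4-11 (FLT3-ITD) cells, 10,000 per well, for 72 hours at 37° C. Viability by MTT, formazan dissolved in DMSO, absorbance at 600 nm; IC50 by nonlinear regression as concentration halving absorbance versus untreated cells.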

The target of another assay is T1, KDR kinase (Homo sapiens, UniProt P35968).
T1 construct: human VEGFR-2 (Val789-Val1356); GST (N); purchased Cell Signaling Technology HTScan VEGFR-2 Kinase Assay Kit; host or cells: baculovirus expression system
Nature of the assay: KDR kinase DELFIA assay (HTScan VEGFR-2 Kinase Assay Kit). The format is biochemical. As to conditions: 20 uM ATP; for inhibition at 1 µM: 1 uM compound, read-out: Kinases inhibitory activities against KDR kinase, 1 uM; for inhibition at 0.1 µM: 0.1 uM compound, read-out: Kinases inhibitory activities against KDR kinase, 0.1 uM. How it is done: (§1) Azaazulene Compounds of this invention were treated for their efficacy in inhibiting activities of FLT-3, c-KIT and KDR kinases by biochemical DELFIA (Dissociation Enhanced Lanthanide FIA) assays according to the procedure described below. The assays were conducted by, Division of Cell Engineering, Biomedical Engineering Research Laboratories, Industrial Technology Research Institute, Bldg. 53, 195, sec. 4, Chung Hsing Rd. Chutung, Hsinchu, Taiwan 310, R.O.C.
The KDR assay was conducted following the protocol described in Protocol for HTScan™ VEGFR-2 Kinase Assay Kit (Cell Signaling Technology™).

The target of the next assay is T2, c-KIT kinase (Homo sapiens, UniProt P10721).
T2 construct: human c-KIT (Thr544-Val976); GST (N); purchased Cell Signaling Technology HTScan c-KIT Kinase Assay Kit; host or cells: baculovirus expression system
Nature of the assay: c-KIT kinase DELFIA assay (HTScan c-KIT Kinase Assay Kit). It counts as biochemical. As to conditions: 20 uM ATP; for inhibition at 0.1 µM: 0.1 uM compound; for inhibition at 1 µM: 1 uM compound. How it is done:
as §1
The c-KIT assay was conducted following the protocol described in Protocol for HTScan® c-KIT Kinase Assay Kit (Cell Signaling Technology®).

The next assay has as its target T3, FLT-3 kinase (Homo sapiens, UniProt P36888).
T3 construct: human FLT-3 (Arg571-Ser993); GST (N); purchased Cell Signaling Technology HTScan FLT-3 Kinase Assay Kit; host or cells: baculovirus expression system
T3 sequence (P36888 571-993): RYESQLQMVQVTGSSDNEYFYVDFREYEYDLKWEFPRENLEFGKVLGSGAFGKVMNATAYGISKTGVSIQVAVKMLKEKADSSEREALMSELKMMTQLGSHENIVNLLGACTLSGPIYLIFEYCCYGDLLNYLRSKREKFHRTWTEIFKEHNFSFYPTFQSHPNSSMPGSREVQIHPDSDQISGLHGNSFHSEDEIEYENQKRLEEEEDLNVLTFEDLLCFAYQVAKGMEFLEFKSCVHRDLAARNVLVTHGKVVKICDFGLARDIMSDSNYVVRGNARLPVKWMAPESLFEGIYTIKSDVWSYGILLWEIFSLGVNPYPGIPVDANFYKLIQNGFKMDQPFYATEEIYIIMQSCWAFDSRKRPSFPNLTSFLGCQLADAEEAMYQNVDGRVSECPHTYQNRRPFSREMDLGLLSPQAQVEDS
Nature of the assay: FLT-3 kinase DELFIA assay (HTScan FLT-3 Kinase Assay Kit). As to conditions: 20 uM ATP; for inhibition at 0.1 µM: 0.1 uM compound; for inhibition at 1 µM: 1 uM compound. It counts as biochemical.

T2 sequence (P10721 544-976): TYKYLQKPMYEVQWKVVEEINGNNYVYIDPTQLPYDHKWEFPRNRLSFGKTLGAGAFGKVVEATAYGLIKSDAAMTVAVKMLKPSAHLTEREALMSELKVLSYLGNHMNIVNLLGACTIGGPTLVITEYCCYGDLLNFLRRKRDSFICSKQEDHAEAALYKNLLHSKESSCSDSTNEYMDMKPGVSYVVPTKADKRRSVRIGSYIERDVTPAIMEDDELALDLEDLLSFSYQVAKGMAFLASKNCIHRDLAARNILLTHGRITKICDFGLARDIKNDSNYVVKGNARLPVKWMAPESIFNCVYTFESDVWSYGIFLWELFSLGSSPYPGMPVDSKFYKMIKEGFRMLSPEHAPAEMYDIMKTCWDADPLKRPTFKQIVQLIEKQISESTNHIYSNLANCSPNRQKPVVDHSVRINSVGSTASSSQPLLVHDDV
T1 sequence (P35968 789-1356): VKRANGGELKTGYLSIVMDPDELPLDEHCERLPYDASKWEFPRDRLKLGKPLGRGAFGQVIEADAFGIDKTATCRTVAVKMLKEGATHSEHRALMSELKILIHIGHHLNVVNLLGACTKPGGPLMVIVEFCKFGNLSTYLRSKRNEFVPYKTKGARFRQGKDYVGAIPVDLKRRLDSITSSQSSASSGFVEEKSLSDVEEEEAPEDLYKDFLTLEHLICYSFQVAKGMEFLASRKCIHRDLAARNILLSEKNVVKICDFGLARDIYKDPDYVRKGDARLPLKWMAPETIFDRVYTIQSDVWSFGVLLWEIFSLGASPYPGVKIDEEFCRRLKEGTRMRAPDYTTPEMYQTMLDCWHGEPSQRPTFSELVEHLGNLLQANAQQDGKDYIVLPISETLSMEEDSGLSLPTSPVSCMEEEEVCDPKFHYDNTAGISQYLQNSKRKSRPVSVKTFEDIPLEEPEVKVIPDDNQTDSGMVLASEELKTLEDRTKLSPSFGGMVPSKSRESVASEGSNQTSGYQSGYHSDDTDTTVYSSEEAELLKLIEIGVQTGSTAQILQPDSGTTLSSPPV

On to `CCN(CC)CCn1c2cccccc-2c(-c2nc3ccccc3[nH]2)c1=O` [Compound B1], for which, in assay [1], the IC50 was 1000 to 5000 nM. Also, the figures for the inhibition at 1 µM on KDR kinase, against c-KIT kinase and against FLT-3 kinase were 3.7%, 41.1% and 10.4%, respectively. Further, the inhibition at 0.1 µM at c-KIT kinase is 31.2%; against FLT-3 kinase, 8.4%.

With `O=c1[nH]c2cccccc-2c1-c1nc2cc(F)ccc2[nH]1` [Compound B2], in assay [1], the IC50 was 1000 to 5000 nM. Besides, the values for the inhibition at 0.1 µM on KDR kinase, against c-KIT kinase and on FLT-3 kinase were 78.3%, 6.4% and 18.9%, respectively. Also, the inhibition at 1 µM was determined as 94.5% at KDR kinase, 57.9% at c-KIT kinase and 59.9% against FLT-3 kinase.

For the molecule `O=c1[nH]c2cccccc-2c1-c1nc2cc(C(F)(F)F)ccc2[nH]1` [Compound B4], in assay [1], the IC50 lay within 1000 to 5000 nM. Besides, the inhibition at 0.1 µM on KDR kinase came to 14.4%; on c-KIT kinase, 5%; at FLT-3 kinase, 13.7%. Further, the inhibition at 1 µM at KDR kinase stood at 17.8%; at c-KIT kinase it was 37.6%; against FLT-3 kinase, 37.1%.

As for `O=c1[nH]c2cccccc-2c1-c1nc2cc([N+](=O)[O-])ccc2[nH]1` [Compound B5], in assay [1], the IC50 was determined as 1300 nM. Besides, the inhibition at 0.1 µM at KDR kinase was 31.7%; at c-KIT kinase, 15.2%; at FLT-3 kinase it was 12.8%. For the same molecule, the inhibition at 1 µM at KDR kinase amounted to 45.3%; on c-KIT kinase it was 56.8%; against FLT-3 kinase, 27.1%.

Turning to `Nc1ccc2[nH]c(-c3c4cccccc-4[nH]c3=O)nc2c1` [Compound B6], the IC50 in assay [1] amounted to 916 nM. Moreover, the inhibition at 0.1 µM at KDR kinase was found to be 29.7%; against c-KIT kinase, 32.6%; at FLT-3 kinase, 12.8%. Besides, the inhibition at 1 µM at KDR kinase worked out at 63.3%; at c-KIT kinase, 62.6%; against FLT-3 kinase, 45.1%.

Regarding `O=C(O)c1ccc2[nH]c(-c3c4cccccc-4[nH]c3=O)nc2c1` [Compound B7], the IC50 in assay [1] is over 5000 nM. Also, the inhibition at 0.1 µM on KDR kinase was found to be 20.2%; on c-KIT kinase, 34.8%. In addition, the figures for the inhibition at 1 µM on KDR kinase, against c-KIT kinase and against FLT-3 kinase were 46.1%, 57.3% and 8.7%, respectively.

`O=c1[nH]c2cccccc-2c1-c1nc2cc(O)ccc2[nH]1` [Compound B8]: the IC50 in assay [1] was about 500 nM. Also, the inhibition at 0.1 µM on KDR kinase was 15.9%; against c-KIT kinase it was 42.2%; against FLT-3 kinase, 9.8%. In addition, the inhibition at 1 µM is 63.8% on KDR kinase, 75.5% against c-KIT kinase and 68.5% against FLT-3 kinase.

As for `O=c1[nH]c2cccccc-2c1-c1cn2ccccc2n1` [Compound B9], in assay [1], the IC50 was 1000 to 5000 nM. The inhibition at 0.1 µM at KDR kinase was determined as 0.5%; against c-KIT kinase, 16%; against FLT-3 kinase it was 5.8%. The inhibition at 1 µM was 13.2% on KDR kinase, 24.4% on c-KIT kinase and 19.1% on FLT-3 kinase.

As to `O=c1[nH]c2cccccc-2c1-c1nc2cccnc2[nH]1` [Compound B15], the IC50 in assay [1] lay within 1000 to 5000 nM. In addition, on c-KIT kinase, the inhibition at 0.1 µM was determined as 8.5% and the inhibition at 1 µM was 43.1%. On FLT-3 kinase, this molecule registered an inhibition at 0.1 µM of 8.6% and an inhibition at 1 µM of 18.1%.

Take `CN(C)CCCN(C)c1ccc2[nH]c(-c3c4cccccc-4[nH]c3=O)nc2c1` [Compound B21]: the IC50 in assay [1] came out at 428 nM. Also, at c-KIT kinase, the inhibition at 0.1 µM is 10.8% and the inhibition at 1 µM came to 55.4%. At FLT-3 kinase, this molecule displayed an inhibition at 0.1 µM of 20.1% and an inhibition at 1 µM of 63%.

For the molecule `C[N+]1([O-])CC[N+]([O-])(c2ccc3[nH]c(-c4c5cccccc-5[nH]c4=O)nc3c2)CC1` (stereo not shown) [Compound B70], the IC50 in assay [1] is about 1000 nM. In addition, the inhibition at 0.1 µM against c-KIT kinase stood at 40.5%; on FLT-3 kinase, 11.1%. The inhibition at 1 µM is 86.6% against c-KIT kinase and 27.5% against FLT-3 kinase.

On to `O=c1[nH]c2cccccc-2c1-c1nc2cc(N3CCCN(CCF)CC3)ccc2[nH]1` [Compound B80], for which, in assay [1], the IC50 was 796 nM. Also, on c-KIT kinase, the inhibition at 0.1 µM was determined as 56.7% and the inhibition at 1 µM worked out at 82.9%. In addition, on FLT-3 kinase, the inhibition at 0.1 µM turned out to be 23.1% and the inhibition at 1 µM turned out to be 71.4%.

In the case of `O=c1[nH]c2cccccc-2c1-c1nc2cc(N3CCCNCC3)ccc2n1CCCF` [Compound B81], in assay [1], the half-inhibitory concentration (IC50) stood at 208 nM. On c-KIT kinase, this molecule returned an inhibition at 0.1 µM of 28.9% and an inhibition at 1 µM of 17.2%. Besides, at FLT-3 kinase, the inhibition at 0.1 µM amounted to 9.9% and the inhibition at 1 µM was found to be 21%.

For `O=c1[nH]c2cccccc-2c1-c1nc2cc(N3CCCN(CCCF)CC3)ccc2[nH]1` [Compound B82], the IC50 in assay [1] is 18.6 nM. On c-KIT kinase, this molecule returned an inhibition at 0.1 µM of 31% and an inhibition at 1 µM of 91.1%. At FLT-3 kinase, this molecule came in with an inhibition at 0.1 µM of 30.3% and an inhibition at 1 µM of 81.6%.

For `O=c1[nH]c2cccccc-2c1-c1nc2cc(N3CCCN(CCCF)CC3)ccc2n1CCCF` [Compound B83], in assay [1], the IC50 turned out to be 227 nM. On c-KIT kinase, this molecule displayed an inhibition at 1 µM of 19.7%. Further, at FLT-3 kinase, the inhibition at 0.1 µM worked out at 11% and the inhibition at 1 µM was 21.2%.

For `O=c1[nH]c2cccccc-2c1-c1nc2cc(N3CCCN(Cc4cccnc4)CC3)ccc2[nH]1` [Compound B87], the IC50 in assay [1] amounted to 88.6 nM. For the same molecule, on c-KIT kinase, the inhibition at 0.1 µM worked out at 49.6% and the inhibition at 1 µM was found to be 96.2%. Also, on FLT-3 kinase, the inhibition at 0.1 µM was 39.8% and the inhibition at 1 µM came to 91.6%.

As to `O=CN1CCCN(c2ccc3[nH]c(-c4c5cccccc-5[nH]c4=O)nc3c2)CC1` [Compound B88], the IC50 in assay [1] worked out at 144 nM. Besides, on c-KIT kinase, the inhibition at 0.1 µM turned out to be 47.2% and the inhibition at 1 µM was 89.2%. On FLT-3 kinase, this molecule yielded an inhibition at 0.1 µM of 20.6% and an inhibition at 1 µM of 62.4%.

For `O=c1[nH]c2cccccc-2c1-c1nc2cc(N3CCCN(c4ccccn4)CC3)ccc2[nH]1` [Compound B94], the IC50 in assay [1] came out at 852 nM. At c-KIT kinase, this molecule gave an inhibition at 0.1 µM of 12.3% and an inhibition at 1 µM of 79.1%. In addition, at FLT-3 kinase, the inhibition at 0.1 µM turned out to be 17% and the inhibition at 1 µM amounted to 52.3%.

`O=c1[nH]c2cccccc-2c1-c1nc2cc(N3CCCN(c4ncccc4[N+](=O)[O-])CC3)ccc2[nH]1` [Compound B95]: the IC50 in assay [1] was 771 nM. Moreover, at c-KIT kinase, the inhibition at 0.1 µM was found to be 48.3% and the inhibition at 1 µM came out at 82.6%. For the same molecule, on FLT-3 kinase, the inhibition at 0.1 µM came to 14.4% and the inhibition at 1 µM turned out to be 37.7%.

As for `Cc1cc(N2CCCN(c3ccc4[nH]c(-c5c6cccccc-6[nH]c5=O)nc4c3)CC2)nc(N(C)C)n1` [Compound B97], the IC50 in assay [1] is 100 to 500 nM. In addition, on c-KIT kinase, the inhibition at 0.1 µM came out at 40.1% and the inhibition at 1 µM came to 87.2%. On FLT-3 kinase, this molecule had an inhibition at 0.1 µM of 8.8% and an inhibition at 1 µM of 44.6%.

Consider `O=C(Nc1ccc(Cl)c(C(F)(F)F)c1)Nc1ccc2[nH]c(-c3c4cccccc-4[nH]c3=O)nc2c1` [Compound B118], for which the IC50 in assay [1] was 64.1 nM. Further, the values for the inhibition at 0.1 µM against c-KIT kinase and against FLT-3 kinase were 66.6% and 57.9%, respectively. For the same molecule, the values for the inhibition at 1 µM at c-KIT kinase and on FLT-3 kinase were 36.8% and 76.3%, respectively.

In general, IC50 refers to the concentration that gives 50% inhibition.

The record behind these values is patent publication US8492374B2, “Azaazulene compounds” (Industrial Technology Research Institute, priority 2009, dated 2013).
